Assay results from US12419875B2, “Use of Axitinib and analogs thereof in preparing blood-brain barrier permeability regulator” (ZHEJIANG UNIVERSITY, priority 2018, dated 2025).

Legend:
Format in all cases: cell-based
Claudin-5/Occludin = test: Tumor cell culture co-incubated with bEnd.3 cells (U87MG removed), Claudin-5/Occludin immunofluorescence; settings: tumor cell culture kept, 10 μM, 24 hours, FIG. 17
Method: FIG. 17: Co-incubation of a tumor cell culture and bEnd.3 cells in vitro, and immunofluorescent staining of a blood-brain barrier tight junction protein of Claudin-5/Occludin. A Transwell model of co-incubation of brain microvascular endothelial cells bEnd.3 and glioma cells U87 MG simulates a pathological blood-brain barrier. Once a pathological blood-brain barrier model was formed, U87MG glioma cells in the outer chamber of Transwell were removed, while the tumor cell cultures were remained. Axitinib (10 μM) and an Axitinib analog of phosphatidylinositol kinase (PI3K) inhibitor LY294002 (10 μM) were added to the Transwell chamber. After 24 hours, immunofluorescent staining was performed on bEnd.3 cells on the Transwell chamber membrane. A physiological blood-brain barrier simulated by a Transwell model of brain microvascular endothelial cell bEnd.3 was used as a positive control.
The physiological blood-brain barrier and the pathological blood-brain barrier as constructed in Method 1 and Method 2 in the Example 1 were used as models, respectively. Once a pathological blood-brain barrier model was formed, U87MG glioma cells in the outer chamber of Transwell were removed, while the tumor cell cultures were remained. Axitinib (10 μM) and an Axitinib analog of phosphatidylinositol kinase (PI3K) inhibitor LY294002 (10 μM) were added to the Transwell chamber. […]

bEnd.3 cells = test: Cell survival rate by tetrazolium blue colorimetry, bEnd.3 cells; settings: 10 μM (therapeutic dose), FIGS. 13 and 14
Method: FIG. 13: Evaluation of cell survival rate in a Transwell model. A Transwell model of co-incubation of brain microvascular endothelial cells bEnd.3 and glioma cells U87 MG simulates a pathological blood-brain barrier. Axitinib (10 μM) and an Axitinib analog of phosphatidylinositol kinase (PI3K) inhibitor LY294002 (10 μM) were added into the Transwell chamber. After 24 hours, the survival rate of bEnd.3 cells in the Transwell chamber (Panel A) and U87 MG cells in the Transwell outer chamber (Panel B) were detected by tetrazolium blue colorimetry (n=3).
FIG. 14: Evaluation of Cytotoxicity for Axitinib and an analog thereof. […] Cell survival rate was detected by tetrazolium blue colorimetry. […]
The physiological blood-brain barrier and the pathological blood-brain barrier as constructed in Method 1 and Method 2 in the Example 1 were used as models, respectively. […] Absorbance at 570 nm was measured with a microplate reader. The survival rate of cells was calculated according to the following formula: Survival rate of cells (%)=(absorbance value of a test group/absorbance value of a control group)×100%
In addition, bEnd.3 cells and U87 MG glioma cells were used as model cells to evaluate the cytotoxicity of Axitinib and an Axitinib analog of phosphatidylinositol kinase (PI3K) inhibitor LY294002 with the tetrazolium blue colorimetric method. […] Absorbance at 570 nm was measured with a microplate reader.

Claudin-5 = test: VEGF-stimulated physiological blood-brain barrier Transwell model, Claudin-5 immunofluorescence; settings: bEnd.3 Transwell, exogenous VEGF plus Axitinib 0, 2, 4 μg/mL, 24 hours; FIG. 7
Method: A Transwell model of brain microvascular endothelial cells bEnd.3 simulates a physiological blood-brain barrier. Transwell chambers were stimulated with the added exogenous vascular endothelial growth factor (VEGF), and further with Axitinib at different concentrations (0, 2 μg/mL, 4 μg/mL) synergistically for 24 hours. Thereafter, Immunofluorescence staining was performed on bEnd.3 cells on the Transwell chamber membrane. […] Panel B is the result of fluorescence semi-quantitative analysis of Claudin-5 expression by Image J (n=3).
Brain microvascular endothelial cells bEnd.3 were used as model cells of a blood-brain barrier. 0.5 mL suspension of well-grown bEnd.3 cells was inoculated in the chamber of a 12-well Transwell plate with a pore size of 0.4 μm at a cell density of 1×10^5/well. 1.5 mL of fresh culture medium was supplemented in the outer chamber. The culture medium was refreshed every other day. Incubation was continued for 15 days at 37° C. and 5% CO2. When the cell transmembrane resistance value was greater than 150 ohm·cm^2 (Ω·cm^2), a cell model of physiological blood-brain barrier was obtained for evaluation.
The physiological blood-brain barrier as constructed by Method 1 in the Example 1 was used as a model. Exogenous vascular endothelial cell growth factor (VEGF) and Axitinib at different concentrations were added to the Transwell chamber. […]

[1] = system: pathological blood-brain barrier (bEnd.3 cells co-incubated with U87 MG glioma cells); test: Pathological blood-brain barrier Transwell model (bEnd.3 co-incubated with U87 MG), cell transmembrane resistance; settings: 24 hours
Method: A Transwell model of co-incubation of brain microvascular endothelial cells bEnd.3 and glioma cells U87 MG simulates a pathological blood-brain barrier. Axitinib at different concentrations (0, 0.05 μg/mL, 0.1 μg/mL, 0.5 g/mL, 1 μg/mL, 4 μg/mL, 5 μg/mL, 10 μg/mL, 20 μg/mL) was allowed to act on the Transwell chamber. After 24 hours, cell transmembrane resistances were detected by a cell resistance meter. A physiological blood-brain barrier simulated by a Transwell model of brain microvascular endothelial cell bEnd.3 was used as a positive control (n=5).
A Transwell model of co-incubation of brain microvascular endothelial cells bEnd.3 and glioma cells U87 MG simulates a pathological blood-brain barrier. Axitinib (10 μM), an Axitinib analog of phosphatidylinositol kinase (PI3K) inhibitor LY294002 (10 μM), protein kinase B (AKT) agonist SC79 (10 μM) were added into the Transwell chamber. After 24 hours, cell transmembrane resistance was detected by a cell resistance meter. A physiological blood-brain barrier simulated by a Transwell model of brain microvascular endothelial cell bEnd.3 was used as a positive control (n=5).
U87 MG glioma cells were used as brain tumor model cells. 1.5 mL suspension of well-grown U87 MG cell suspension was inoculated in a 12-well plate at a cell density of 2×10^5/well. Incubation was continued at 37° C. and 5% CO2 until the cells adhere. Then, the physiological blood-brain barrier as constructed by Method 1 in the Example 1, i.e., the Transwell chamber with bEnd.3 cells grown, was transferred to the 12-well plate with U87 MG cells grown. Co-culture was further continued for 24 hours to obtain a cell model of pathological blood-brain barrier.
The physiological blood-brain barrier as constructed by Method 2 in the Example 1 was used as a model. Axitinib at different concentrations was added to the Transwell chamber for stimulation.
The physiological blood-brain barrier and the pathological blood-brain barrier as constructed in Method 1 and Method 2 in the Example 1 were used as models, respectively. Axitinib (10 μM), an Axitinib analog of phosphatidylinositol kinase (PI3K) inhibitor LY294002 (10 μM), protein kinase B (AKT) agonist SC79 (10 μM) were added into the Transwell chamber of the pathological blood-brain barrier model as constructed in Method 2 in the Example 1. After 24 hours, the Transwell chamber with bEnd.3 cells grown was transferred to another 12-well plate, washed with PBS for 3 times, and 0.5 mL HBSS nutrient solution was added to the chamber, and the outer chamber was supplemented with 1.5 mL HBSS nutrient solution. The cells were equilibrated at 37° C. for 15 minutes. Cell transmembrane resistance was detected by a cell resistance meter.

## CNC(=O)c1ccccc1Sc1ccc2c(/C=C/c3ccccn3)n[nH]c2c1 [Axitinib, N-methyl-2-((3-((1E)-2-(pyridine-2-yl)ethenyl)-1H-indazol-6-yl)sulfanyl)benzamide]
Claudin-5/Occludin
  Expression of tight junction protein Claudin-5/Occludin: the degree to which pathological blood-brain barrier tight junction protein of Claudin-5/Occludin is down-regulated is reduced
bEnd.3 cells
  Cytotoxicity: do not produce significant cytotoxicity
Claudin-5
  Expression of tight junction protein Claudin-5: reduce the degree to which Claudin-5 is down-regulated in a dose-dependent manner
[1]; 10 μM, FIG. 10
  Cell transmembrane resistance (blood-brain barrier function): promote recovery of a blood-brain barrier function from a pathologically impaired state to a state close to a physiological barrier
[1]; FIG. 9
  Concentration at which blood-brain barrier permeability is effectively reduced (cell transmembrane resistance): 0.5˜20 μg/mL
[1]; FIG. 9, same range in μM
  Concentration at which blood-brain barrier permeability is effectively reduced (cell transmembrane resistance): 1.29 to 51.75 µM
[1]; Axitinib 0-20 μg/mL, FIG. 9
  Cell transmembrane resistance, dependence on concentration: dose-dependent
